Experimental data published in US8163758B2 (Parion Sciences, Inc., priority 2006, dated 2012).
Structures can show the parent of a compound that is named as a salt.

What was measured:
[1] = molecular target: T1, epithelial sodium channel (ENaC) (Canis lupus familiaris, UniProt A0A8I3MKE6+A0A8I3Q679+Q95165); assay: ENaC blocking activity, short circuit current in airway epithelial monolayers in Ussing chambers; assay type: cell-based; conditions: canine bronchial epithelia; for ENaC blocking potency relative to Amiloride: fold potency versus amiloride; for IC50: lumenal addition, propranolol 10 μM applied first
T1 construct: endogenous in cells; host or cells: primary canine bronchial epithelial cells cultured at air-liquid interface
T1 sequence (A0A8I3Q679 1-649): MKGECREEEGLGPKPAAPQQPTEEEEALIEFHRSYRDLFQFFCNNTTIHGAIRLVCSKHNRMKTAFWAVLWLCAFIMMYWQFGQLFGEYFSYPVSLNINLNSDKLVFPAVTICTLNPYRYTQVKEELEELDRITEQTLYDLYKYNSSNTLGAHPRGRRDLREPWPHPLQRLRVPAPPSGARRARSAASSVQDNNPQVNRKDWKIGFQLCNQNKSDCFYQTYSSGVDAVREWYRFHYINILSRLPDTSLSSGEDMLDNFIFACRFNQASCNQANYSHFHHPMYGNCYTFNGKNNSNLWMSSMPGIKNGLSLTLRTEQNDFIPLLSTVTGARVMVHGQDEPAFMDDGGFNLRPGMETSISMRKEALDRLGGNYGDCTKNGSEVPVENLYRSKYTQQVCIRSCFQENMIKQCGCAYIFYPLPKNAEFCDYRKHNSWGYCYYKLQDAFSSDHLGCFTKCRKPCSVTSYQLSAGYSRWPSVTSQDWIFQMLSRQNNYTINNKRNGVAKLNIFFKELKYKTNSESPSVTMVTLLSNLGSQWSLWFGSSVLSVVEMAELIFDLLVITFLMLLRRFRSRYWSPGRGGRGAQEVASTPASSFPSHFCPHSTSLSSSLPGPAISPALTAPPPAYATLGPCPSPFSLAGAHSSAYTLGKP
T1 sequence (Q95165 1-641): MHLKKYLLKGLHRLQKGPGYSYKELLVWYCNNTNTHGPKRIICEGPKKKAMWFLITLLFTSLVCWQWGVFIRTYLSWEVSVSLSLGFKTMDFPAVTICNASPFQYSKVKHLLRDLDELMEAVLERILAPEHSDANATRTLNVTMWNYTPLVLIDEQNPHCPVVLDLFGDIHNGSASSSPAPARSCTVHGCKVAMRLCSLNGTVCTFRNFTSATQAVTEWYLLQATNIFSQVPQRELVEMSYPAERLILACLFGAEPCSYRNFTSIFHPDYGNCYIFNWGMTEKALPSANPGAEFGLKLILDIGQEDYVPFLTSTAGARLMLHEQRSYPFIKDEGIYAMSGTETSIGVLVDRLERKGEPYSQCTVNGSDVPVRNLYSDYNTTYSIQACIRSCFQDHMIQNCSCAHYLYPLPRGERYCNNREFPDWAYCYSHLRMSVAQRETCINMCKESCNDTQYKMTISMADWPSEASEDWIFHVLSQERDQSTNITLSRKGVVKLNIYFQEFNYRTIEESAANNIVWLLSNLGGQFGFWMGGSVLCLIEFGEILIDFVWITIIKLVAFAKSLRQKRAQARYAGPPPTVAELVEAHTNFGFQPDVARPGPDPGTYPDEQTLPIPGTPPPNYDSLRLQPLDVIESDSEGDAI
T1 sequence (A0A8I3MKE6 1-646): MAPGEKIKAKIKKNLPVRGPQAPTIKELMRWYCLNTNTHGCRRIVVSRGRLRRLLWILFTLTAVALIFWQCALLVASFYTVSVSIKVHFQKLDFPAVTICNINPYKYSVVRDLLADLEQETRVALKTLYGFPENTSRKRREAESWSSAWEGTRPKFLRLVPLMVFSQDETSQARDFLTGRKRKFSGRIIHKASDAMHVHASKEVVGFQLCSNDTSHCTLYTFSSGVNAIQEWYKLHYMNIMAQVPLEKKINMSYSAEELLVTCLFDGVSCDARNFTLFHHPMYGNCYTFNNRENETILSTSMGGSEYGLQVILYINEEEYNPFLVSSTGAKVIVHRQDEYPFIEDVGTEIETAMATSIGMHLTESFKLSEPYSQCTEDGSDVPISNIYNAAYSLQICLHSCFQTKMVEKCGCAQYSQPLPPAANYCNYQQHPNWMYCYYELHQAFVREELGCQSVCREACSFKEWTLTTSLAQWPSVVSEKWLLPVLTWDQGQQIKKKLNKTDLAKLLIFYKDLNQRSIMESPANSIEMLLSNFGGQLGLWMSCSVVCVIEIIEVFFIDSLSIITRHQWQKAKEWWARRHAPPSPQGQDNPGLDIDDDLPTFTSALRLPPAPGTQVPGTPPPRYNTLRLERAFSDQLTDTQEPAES
Method: To assess epithelial sodium channel blocker potency the compounds of the present invention involves the determination of lumenal drug inhibition of airway epithelial sodium currents measured under short circuit current (ISC) using airway epithelial monolayers mounted in Ussing chambers. Cells obtained from freshly excised human, or dog airways are seeded onto porous 0.4 micrometer Transwell® Permeable Supports (Corning Inc. Acton, Mass.), cultured at air-liquid interface (ALI) conditions in hormonally defined media, and assayed for sodium transport activity (ISC) while bathed in Krebs Bicarbonate Ringer (KBR) in Ussing chambers. All test drug additions are to the lumenal bath with approximately half-log dose additions (from 1×10^−11 M to 6×10^−5 M), and the cumulative change in ISC (decreases) recorded. All drugs are prepared in dimethyl sulfoxide as stock solutions at a concentration of approximately 1×10^−2 and stored at −20° C. Six preparations are typically run in parallel; one preparation per run incorporates 552-02 as a positive control. Before the start of the concentration-effect relationship propranolol, a non-selective […], was applied to the lumenal bath (10 μM) to inhibit the beta agonist component of the designer multiple ligand (DML). All data from the voltage clamps are collected via a computer face and analyzed off-line.
Concentration-effect relationships for all compounds are considered and analyzed Using GraphPad Prism version 3.00 for Windows, GraphPad Software, San Diego Calif. USA. IC50 values, […], are calculated and compared to the 552-02 potency as a positive control.

beta-adrenergic receptor = molecular target: T2, beta-adrenergic receptor (Canis lupus familiaris, UniProt P54833); assay: Beta agonist activity, anion secretion short circuit current in airway epithelial monolayers in Ussing chambers; assay type: cell-based, canine
T2 construct: endogenous in cells; host or cells: primary canine bronchial epithelial cells cultured at air-liquid interface
Method: To assess beta agonist activity the compounds of the present invention involves the determination of lumenal drug addition to promote airway epithelial anion currents measured under short circuit current (ISC) using airway epithelial monolayers mounted in Ussing chambers. Cells obtained from freshly excised human, dog, or sheep airways are seeded onto porous 0.4 micron Transwell® Permeable Supports (Corning), cultured at air-liquid interface (ALI) conditions in hormonally defined media, and assayed for anion secretion (ISC) while bathed in Krebs Bicarbonate Ringer (KBR) in Ussing chambers. All test drug additions are to the lumenal bath with approximately half-log dose additions (from 8×10^−10 M to 6.5×10^−5 M), and the cumulative change in ISC (excitation) recorded. All drugs are prepared in dimethyl sulfoxide as stock solutions at a concentration from 1×10^−1 to 1×10^−2 M and stored at −20° C. […] Before the start of the concentration-effect relationship 552-02 a potent sodium channel blocker was applied to the apical surface (1 μM) to eliminate changes in Isc caused by sodium absorption. All data from the voltage clamps are collected via a computer interface and analyzed off-line.
Concentration-effect relationships for all compounds are considered and analyzed Using GraphPad Prism version 3.00 for Windows, GraphPad Software, San Diego Calif. USA.

T2 sequence (P54833 whole entry): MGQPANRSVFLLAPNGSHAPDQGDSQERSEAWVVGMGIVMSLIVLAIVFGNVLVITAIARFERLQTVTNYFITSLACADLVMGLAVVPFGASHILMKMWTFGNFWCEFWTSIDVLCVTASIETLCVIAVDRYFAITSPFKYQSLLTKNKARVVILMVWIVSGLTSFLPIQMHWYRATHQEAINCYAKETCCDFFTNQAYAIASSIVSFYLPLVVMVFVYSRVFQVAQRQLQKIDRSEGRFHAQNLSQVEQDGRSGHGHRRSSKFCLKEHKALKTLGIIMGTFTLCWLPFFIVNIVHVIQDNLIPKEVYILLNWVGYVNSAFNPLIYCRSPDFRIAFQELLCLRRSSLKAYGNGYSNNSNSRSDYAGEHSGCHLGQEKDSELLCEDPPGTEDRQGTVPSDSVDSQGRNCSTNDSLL

| SMILES | ENaC blocking potency relative to Amiloride [1] [× Amiloride] | IC50 [1] [nM] | melting point | EC50 (beta-adrenergic receptor) [nM] |
| --- | --- | --- | --- | --- |
| C[C@H](CCCc1ccc(CCCCNC(=N)NC(=O)c2nc(Cl)c(N)nc2N)cc1)NC[C@H](O)c1ccc(O)c(NC=O)c1 [Compound 30, N-(5-{2-[4-(4-{4-[N′-(3,5-diamino-6-chloropyrazine-2-carbonyl)-guanidino]butyl}phenyl)-1-methylbutylamino]-1-(R)-hydroxyethyl}-2-hydroxyphenyl)formamide] | 93 | 8.4 | 120 to 121 °C (dec.) | 71.6 |
| C[C@H](CCCc1ccc(CCCCNC(=N)NC(=O)c2nc(Cl)c(N)nc2N)cc1)NC[C@H](O)c1ccc(O)c(NC=O)c1 (as salt: lactate) (hydrate or solvate) [Compound 30, N-(5-{2-[4-(4-{4-[N′-(3,5-diamino-6-chloropyrazine-2-carbonyl)-guanidino]butyl}phenyl)-1-methylbutylamino]-1-(R)-hydroxyethyl}-2-hydroxyphenyl)formamide] |  |  | 116 to 119 °C |  |
| CS(=O)(=O)Nc1cc([C@@H](O)CN(CCCCc2ccc(CCCCNC(=N)NC(=O)c3nc(Cl)c(N)nc3N)cc2)C[C@H](O)c2ccc(O)c(NS(C)(=O)=O)c2)ccc1O [Compound 42, N-[5-(2-{[4-(4-{4-[N′-(3,5-diamino-6-chloropyrazine-2-carbonyl)-guanidino]butyl}phenyl)butyl]-[2-(R)-hydroxy-2-(4-hydroxy-3-methanesulfonyl-aminophenyl)ethyl]amino}-1-(R)-hydroxyethyl)-2-hydroxyphenyl]methane-sulfonamide] |  | 21.6 | 148 to 150 °C |  |
| CC(=O)Nc1cc([C@@H](O)CNC(C)CCCc2ccc(CCCCNC(=N)NC(=O)c3nc(Cl)c(N)nc3N)cc2)ccc1O (stereo in doubt) (as salt: lactate) [Compound 175, N—(N-(4-(4-((S)-4-((R)-2-(3-acetamido-4-hydroxyphenyl)-2-hydroxyethylamino)pentyl)phenyl)butyl)carbamimidoyl)-3,5-diamino-6-chloropyrazine-2-carboxamide di-L-lactate] |  |  | 46 to 50 °C (dec.) |  |
| N=C(NCCCCc1ccc(OCCNC[C@H](O)c2ccc(O)c(NC=O)c2)cc1)NC(=O)c1nc(Cl)c(N)nc1N [Compound 19, N-(5-{2-[2-(4-{4-[N-(3,5-diamino-6-chloropyrazine-2-carbonyl)guanidine]butyl}phenoxy)ethylamino]-1-(R)-hydroxylethyl}-2-hydroxyphenyl)-formamide] | 120 | 10 | 120 to 124 °C (dec.) |  |
| N=C(NCCCCc1ccc(CCCCNC[C@H](O)c2ccc(O)c(CO)c2)cc1)NC(=O)c1nc(Cl)c(N)nc1N [Compound 63, N-(3,5-diamino-6-chloropyrazine-2-carbonyl)-N′-[4-(4-{4-[2-(R)-hydroxy-2-(4-hydroxy-3-hydroxymethylphenyl)ethylamino]butyl}phenyl)butyl]-guanidine] | 154 | 6.5 |  |  |
| CS(=O)(=O)Nc1cc([C@@H](O)CNCCCCc2ccc(CCCCNC(=N)NC(=O)c3nc(Cl)c(N)nc3N)cc2)ccc1O [Compound 40, N-(5-{2-[4-(4-{4-[N′-(3,5-diamino-6-chloropyrazine-2-carbonyl)-guanidino]butyl}phenyl)butylamino]-1-(R)-hydroxyethyl}-2-hydroxyphenyl)-methanesulfonamide] | 91 | 9.2 | 108 to 110 °C | 1580 |
| N=C(NCCCCc1ccc(CCCCN(C[C@H](O)c2ccc(O)c(NC=O)c2)C[C@H](O)c2ccc(O)c(NC=O)c2)cc1)NC(=O)c1nc(Cl)c(N)nc1N (as salt: salt) [Compound 14, N-{4-[4-(4-{bis-[2-(R)-hydroxy-2-(4-hydroxy-3-formylaminophenyl)-ethyl]amino}butyl)phenyl]butyl}-N′-(3,5-diamino-6-chloropyrazine-2-carbonyl)-guanidine diacetic acid salt] |  |  | 128 to 130 °C |  |
| CC(CCCc1ccc(CCCCNC(=N)NC(=O)c2nc(Cl)c(N)nc2N)cc1)NC[C@H](O)c1cccc(O)c1 (stereo partly drawn) [Compound 143, 3,5-diamino-6-chloro-N-{N-[4-(4-{4-[(R)-2-hydroxy-2-(3-hydroxyphenyl)ethylamino]pentyl}phenyl)butyl]carbamimidoyl}pyrazine-2-carboxamide] |  |  | 82 to 86 °C |  |
| N=C(NCCCCc1ccc(CCCCN(C[C@H](O)c2ccc(O)c(NC=O)c2)C[C@H](O)c2ccc(O)c(NC=O)c2)cc1)NC(=O)c1nc(Cl)c(N)nc1N [Compound 14, N-{4-[4-(4-{bis-[2-(R)-hydroxy-2-(4-hydroxy-3-formylaminophenyl)-ethyl]amino}butyl)phenyl]butyl}-N′-(3,5-diamino-6-chloropyrazine-2-carbonyl)-guanidine diacetic acid salt] | 66 | 17.7 |  |  |
| N=C(NCCCCc1ccc(CCCCN(C[C@H](O)c2ccc(O)c(CO)c2)C[C@H](O)c2ccc(O)c(CO)c2)cc1)NC(=O)c1nc(Cl)c(N)nc1N [Compound 67, N-{4-[4-(4-{bis-[2-(R)-hydroxy-2-(4-hydroxy-3-hydroxymethylphenyl)-ethyl]amino}butyl)-phenyl]butyl}-N′-(3,5-diamino-6-chloropyrazine-2-carbonyl)-guanidine] | 29 | 22.2 |  |  |
